Drawing on ChEMBL document CHEMBL5465560, “Selectivity Literature for EUbOPEN Chemogenomic Library” (2024), this text covers % of control and % of inhibition for nine compounds.

The target of assay [1] is T1, Serine/threonine-protein kinase PLK4 (Homo sapiens) (UniProt O00444).
T1 sequence (whole entry): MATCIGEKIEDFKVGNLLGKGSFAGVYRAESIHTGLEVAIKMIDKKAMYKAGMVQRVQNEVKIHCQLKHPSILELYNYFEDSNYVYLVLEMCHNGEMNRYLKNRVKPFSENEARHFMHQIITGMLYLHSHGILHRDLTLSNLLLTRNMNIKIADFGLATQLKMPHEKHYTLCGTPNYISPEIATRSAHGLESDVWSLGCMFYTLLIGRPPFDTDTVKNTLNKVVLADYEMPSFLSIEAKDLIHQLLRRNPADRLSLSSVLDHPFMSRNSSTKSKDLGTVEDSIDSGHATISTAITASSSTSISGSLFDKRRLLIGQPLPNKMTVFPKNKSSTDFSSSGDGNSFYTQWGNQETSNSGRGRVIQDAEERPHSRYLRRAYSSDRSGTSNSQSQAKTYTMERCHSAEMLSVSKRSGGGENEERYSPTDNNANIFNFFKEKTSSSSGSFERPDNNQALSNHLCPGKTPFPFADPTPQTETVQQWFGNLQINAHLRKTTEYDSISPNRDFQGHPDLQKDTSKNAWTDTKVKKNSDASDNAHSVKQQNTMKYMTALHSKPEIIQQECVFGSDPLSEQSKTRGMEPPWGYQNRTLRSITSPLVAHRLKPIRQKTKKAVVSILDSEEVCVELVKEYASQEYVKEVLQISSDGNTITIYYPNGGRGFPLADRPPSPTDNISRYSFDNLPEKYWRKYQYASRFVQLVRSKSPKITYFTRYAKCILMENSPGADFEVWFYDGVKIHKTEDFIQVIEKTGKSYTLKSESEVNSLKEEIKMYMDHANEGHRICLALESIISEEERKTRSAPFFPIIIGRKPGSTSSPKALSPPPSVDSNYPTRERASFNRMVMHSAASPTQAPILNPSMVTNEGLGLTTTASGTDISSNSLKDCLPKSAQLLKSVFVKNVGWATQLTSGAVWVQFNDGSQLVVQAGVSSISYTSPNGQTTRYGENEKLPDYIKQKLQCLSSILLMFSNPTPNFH
As to conditions: at 10 µM.

Assay [2] has as its system eIF-2-alpha kinase GCN2 (Homo sapiens), Q9P2K8 [S808G]. As to conditions: at 10 µM.
Assay [3] concerns the target Sodium-dependent dopamine transporter (Homo sapiens, UniProt Q01959). Put plainly: Selectivity interaction (GPCR panel (PDSP screen)) EUB0001079a SLC6A3. As to conditions: at 10 µM.
For assay [4], the target named is Insulin-like growth factor 1 receptor (Homo sapiens, UniProt P08069). Put plainly: Selectivity interaction (KinomeScan (DiscoverX)) EUB0000045b IGF1R.
The target of assay [5] is Ribosomal protein S6 kinase alpha-4 (Homo sapiens) (UniProt O75676). Put plainly: Selectivity interaction (KinomeScan (DiscoverX)) EUB0000045b RPS6KA4.
In assay [6] the target is Serine/threonine-protein kinase PLK1 (Homo sapiens, UniProt P53350). Put plainly: Selectivity interaction (KinomeScan (DiscoverX)) EUB0000666a PLK1. As to conditions: at 10 µM.
Assay [7] deals with Serine/threonine-protein kinase Nek7 (Homo sapiens) (UniProt Q8TDX7). The assay is described as follows: Selectivity interaction (Kinase panel (Z-LYTE Assay)) EUB0001632a NEK7. As to conditions: at 10 µM.
In assay [8] the target is RAC-alpha serine/threonine-protein kinase (Homo sapiens, UniProt P31749). Put plainly: Selectivity interaction (ActivX KiNativ screen (kinase selectivity in THP-1 cell lysates)) EUB0000639a AKT1. Type of assay: subcellular. As to conditions: lysate.
In assay [9] the target is T2, Activin receptor type-1B (Homo sapiens) (UniProt P36896).
T2 sequence (whole entry): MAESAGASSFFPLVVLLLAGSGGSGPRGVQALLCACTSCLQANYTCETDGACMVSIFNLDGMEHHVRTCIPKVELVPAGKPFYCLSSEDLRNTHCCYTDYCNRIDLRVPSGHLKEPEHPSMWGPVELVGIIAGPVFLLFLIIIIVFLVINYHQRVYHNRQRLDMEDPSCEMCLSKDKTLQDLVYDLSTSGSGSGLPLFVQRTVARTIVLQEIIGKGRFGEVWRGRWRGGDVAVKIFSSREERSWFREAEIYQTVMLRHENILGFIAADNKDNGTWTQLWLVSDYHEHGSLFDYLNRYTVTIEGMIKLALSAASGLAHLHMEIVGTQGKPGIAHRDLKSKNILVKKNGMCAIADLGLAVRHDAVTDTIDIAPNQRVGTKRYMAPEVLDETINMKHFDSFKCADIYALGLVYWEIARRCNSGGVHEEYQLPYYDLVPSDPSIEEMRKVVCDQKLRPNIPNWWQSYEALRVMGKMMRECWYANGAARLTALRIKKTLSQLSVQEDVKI
Put plainly: Selectivity interaction (KinomeScan (DiscoverX)) EUB0000595a ACVR1B. As to conditions: at 10 µM.

The target in assay [10] is Non-receptor tyrosine-protein kinase TYK2 (Homo sapiens, UniProt P29597). The assay is described as follows: Selectivity interaction (KinomeScan (DiscoverX)) EUB0001619a TYK2. As to conditions: at 1 µM.
For assay [11], the target named is T3, Serine/threonine-protein kinase STK11 (Homo sapiens) (UniProt Q15831).
T3 sequence (whole entry): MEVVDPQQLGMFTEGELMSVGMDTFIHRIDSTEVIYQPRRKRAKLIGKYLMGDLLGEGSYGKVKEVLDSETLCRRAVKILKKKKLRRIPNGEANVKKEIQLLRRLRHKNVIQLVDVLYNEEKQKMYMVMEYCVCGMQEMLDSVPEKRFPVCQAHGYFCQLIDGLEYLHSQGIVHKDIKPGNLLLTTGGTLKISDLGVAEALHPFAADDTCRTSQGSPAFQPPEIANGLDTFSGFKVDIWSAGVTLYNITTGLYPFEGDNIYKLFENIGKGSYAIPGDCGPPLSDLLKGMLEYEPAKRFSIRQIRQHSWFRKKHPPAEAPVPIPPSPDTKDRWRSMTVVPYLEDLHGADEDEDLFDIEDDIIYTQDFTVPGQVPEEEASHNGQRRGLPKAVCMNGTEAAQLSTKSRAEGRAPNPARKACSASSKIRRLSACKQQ
Put plainly: Selectivity interaction (KinomeScan (DiscoverX)) EUB0000618a STK11. As to conditions: at 10 µM.

RAC-alpha serine/threonine-protein kinase, sequence (P31749 whole entry): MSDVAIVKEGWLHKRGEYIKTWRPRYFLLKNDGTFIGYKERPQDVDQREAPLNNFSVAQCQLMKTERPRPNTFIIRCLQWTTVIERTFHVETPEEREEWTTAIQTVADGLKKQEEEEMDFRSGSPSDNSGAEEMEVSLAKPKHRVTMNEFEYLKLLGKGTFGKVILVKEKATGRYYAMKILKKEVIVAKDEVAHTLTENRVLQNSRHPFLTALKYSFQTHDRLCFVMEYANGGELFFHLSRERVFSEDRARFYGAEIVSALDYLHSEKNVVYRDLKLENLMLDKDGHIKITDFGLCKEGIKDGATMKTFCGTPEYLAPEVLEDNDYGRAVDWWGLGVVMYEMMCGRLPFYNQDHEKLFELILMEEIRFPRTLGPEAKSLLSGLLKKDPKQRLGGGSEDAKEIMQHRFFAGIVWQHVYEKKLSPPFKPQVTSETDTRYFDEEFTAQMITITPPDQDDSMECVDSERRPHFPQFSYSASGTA
Ribosomal protein S6 kinase alpha-4 (Homo sapiens), sequence (O75676 whole entry, looked up): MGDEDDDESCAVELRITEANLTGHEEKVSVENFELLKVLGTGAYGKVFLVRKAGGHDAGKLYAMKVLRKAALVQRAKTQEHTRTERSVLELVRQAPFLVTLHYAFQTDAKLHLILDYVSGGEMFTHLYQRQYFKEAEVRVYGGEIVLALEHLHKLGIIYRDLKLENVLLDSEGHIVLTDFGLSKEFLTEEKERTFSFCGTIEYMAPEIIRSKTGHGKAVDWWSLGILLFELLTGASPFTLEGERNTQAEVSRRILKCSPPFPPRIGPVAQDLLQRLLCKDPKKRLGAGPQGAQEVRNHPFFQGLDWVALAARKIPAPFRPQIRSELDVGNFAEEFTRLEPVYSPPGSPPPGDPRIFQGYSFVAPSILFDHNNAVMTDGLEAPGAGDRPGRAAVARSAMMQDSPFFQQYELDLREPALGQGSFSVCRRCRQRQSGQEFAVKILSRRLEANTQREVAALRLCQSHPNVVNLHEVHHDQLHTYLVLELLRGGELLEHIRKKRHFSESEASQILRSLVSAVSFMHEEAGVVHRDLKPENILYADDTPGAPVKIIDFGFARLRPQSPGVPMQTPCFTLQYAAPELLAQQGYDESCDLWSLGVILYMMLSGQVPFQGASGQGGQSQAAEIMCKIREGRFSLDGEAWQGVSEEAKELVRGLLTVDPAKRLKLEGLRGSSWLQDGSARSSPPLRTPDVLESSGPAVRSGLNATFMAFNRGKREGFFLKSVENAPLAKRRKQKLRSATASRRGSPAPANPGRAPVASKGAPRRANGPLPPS
Insulin-like growth factor 1 receptor, sequence (P08069 31-736 limits assumed): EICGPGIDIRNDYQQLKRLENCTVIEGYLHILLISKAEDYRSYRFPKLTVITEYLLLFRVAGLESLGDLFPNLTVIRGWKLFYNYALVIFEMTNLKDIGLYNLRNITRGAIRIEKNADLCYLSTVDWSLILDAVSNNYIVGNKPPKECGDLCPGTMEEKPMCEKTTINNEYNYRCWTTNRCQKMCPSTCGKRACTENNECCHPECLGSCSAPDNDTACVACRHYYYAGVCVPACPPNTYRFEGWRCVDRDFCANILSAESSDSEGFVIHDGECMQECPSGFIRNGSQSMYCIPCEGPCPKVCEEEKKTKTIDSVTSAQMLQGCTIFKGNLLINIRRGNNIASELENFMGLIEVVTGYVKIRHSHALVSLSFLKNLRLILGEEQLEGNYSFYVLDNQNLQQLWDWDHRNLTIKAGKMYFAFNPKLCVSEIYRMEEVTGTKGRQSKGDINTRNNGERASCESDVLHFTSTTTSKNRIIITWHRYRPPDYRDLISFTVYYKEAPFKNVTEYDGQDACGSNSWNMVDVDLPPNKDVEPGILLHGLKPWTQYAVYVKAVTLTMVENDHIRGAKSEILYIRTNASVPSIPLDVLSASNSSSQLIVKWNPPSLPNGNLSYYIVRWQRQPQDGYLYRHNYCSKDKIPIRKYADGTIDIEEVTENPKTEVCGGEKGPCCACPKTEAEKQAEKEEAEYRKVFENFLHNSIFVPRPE
Insulin-like growth factor 1 receptor, sequence (P08069 741-1367 limits assumed): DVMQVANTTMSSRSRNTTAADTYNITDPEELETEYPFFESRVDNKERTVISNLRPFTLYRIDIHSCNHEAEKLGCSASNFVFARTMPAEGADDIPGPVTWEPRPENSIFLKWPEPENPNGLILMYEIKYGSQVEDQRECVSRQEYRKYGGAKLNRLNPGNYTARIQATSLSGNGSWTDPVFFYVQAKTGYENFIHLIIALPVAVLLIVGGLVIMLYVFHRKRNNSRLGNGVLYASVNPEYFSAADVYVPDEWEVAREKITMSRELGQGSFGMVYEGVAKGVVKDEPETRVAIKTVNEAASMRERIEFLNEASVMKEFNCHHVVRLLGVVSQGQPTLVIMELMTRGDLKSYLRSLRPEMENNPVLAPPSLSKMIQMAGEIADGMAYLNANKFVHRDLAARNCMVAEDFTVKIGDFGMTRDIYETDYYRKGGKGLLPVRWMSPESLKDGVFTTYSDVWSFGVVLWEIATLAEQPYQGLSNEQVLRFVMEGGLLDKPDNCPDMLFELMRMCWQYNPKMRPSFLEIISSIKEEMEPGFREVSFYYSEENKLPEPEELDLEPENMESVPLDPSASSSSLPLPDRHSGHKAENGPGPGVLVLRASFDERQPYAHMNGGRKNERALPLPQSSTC
eIF-2-alpha kinase GCN2 (Homo sapiens), Q9P2K8 [S808G], sequence (Q9P2K8 whole entry S808G): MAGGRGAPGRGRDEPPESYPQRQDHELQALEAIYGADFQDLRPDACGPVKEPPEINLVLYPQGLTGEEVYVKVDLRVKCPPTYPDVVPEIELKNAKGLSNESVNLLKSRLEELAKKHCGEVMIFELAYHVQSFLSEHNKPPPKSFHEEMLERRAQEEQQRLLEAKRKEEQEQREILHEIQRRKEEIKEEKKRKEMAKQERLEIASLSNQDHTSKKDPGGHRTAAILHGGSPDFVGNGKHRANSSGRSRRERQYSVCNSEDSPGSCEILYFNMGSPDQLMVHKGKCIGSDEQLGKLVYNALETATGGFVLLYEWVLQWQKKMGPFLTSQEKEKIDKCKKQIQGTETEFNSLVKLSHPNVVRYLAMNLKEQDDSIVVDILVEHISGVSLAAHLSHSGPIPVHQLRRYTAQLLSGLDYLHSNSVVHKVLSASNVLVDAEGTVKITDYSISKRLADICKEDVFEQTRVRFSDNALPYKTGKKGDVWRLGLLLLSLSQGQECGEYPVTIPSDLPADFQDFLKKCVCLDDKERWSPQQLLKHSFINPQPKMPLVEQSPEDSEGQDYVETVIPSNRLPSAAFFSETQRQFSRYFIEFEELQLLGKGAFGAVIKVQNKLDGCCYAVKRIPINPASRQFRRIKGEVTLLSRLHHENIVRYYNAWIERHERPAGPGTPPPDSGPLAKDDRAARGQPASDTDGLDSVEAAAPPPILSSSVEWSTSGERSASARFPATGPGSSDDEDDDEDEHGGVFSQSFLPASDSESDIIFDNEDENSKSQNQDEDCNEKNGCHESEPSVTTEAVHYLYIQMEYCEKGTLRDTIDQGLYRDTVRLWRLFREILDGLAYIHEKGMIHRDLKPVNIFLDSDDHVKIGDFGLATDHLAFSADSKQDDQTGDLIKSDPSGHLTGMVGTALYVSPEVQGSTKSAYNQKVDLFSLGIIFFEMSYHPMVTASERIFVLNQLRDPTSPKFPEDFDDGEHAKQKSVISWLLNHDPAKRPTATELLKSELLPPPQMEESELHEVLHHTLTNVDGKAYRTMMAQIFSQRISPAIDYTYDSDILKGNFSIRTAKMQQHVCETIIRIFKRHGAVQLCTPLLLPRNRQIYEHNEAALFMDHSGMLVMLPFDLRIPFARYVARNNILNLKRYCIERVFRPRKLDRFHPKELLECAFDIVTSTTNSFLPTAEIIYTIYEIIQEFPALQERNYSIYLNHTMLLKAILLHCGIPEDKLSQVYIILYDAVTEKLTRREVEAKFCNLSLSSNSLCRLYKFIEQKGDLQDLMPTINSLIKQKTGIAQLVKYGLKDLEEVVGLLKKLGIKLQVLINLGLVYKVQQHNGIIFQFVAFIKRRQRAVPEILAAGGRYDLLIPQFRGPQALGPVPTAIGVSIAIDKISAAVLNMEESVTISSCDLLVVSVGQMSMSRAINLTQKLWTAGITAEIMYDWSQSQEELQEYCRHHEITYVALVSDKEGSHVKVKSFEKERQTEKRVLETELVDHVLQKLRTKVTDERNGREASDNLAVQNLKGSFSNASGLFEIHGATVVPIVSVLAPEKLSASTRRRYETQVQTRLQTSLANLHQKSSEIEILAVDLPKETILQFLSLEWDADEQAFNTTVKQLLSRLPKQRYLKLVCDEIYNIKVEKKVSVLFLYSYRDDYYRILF
Serine/threonine-protein kinase Nek7 (Homo sapiens), sequence (Q8TDX7 whole entry, looked up): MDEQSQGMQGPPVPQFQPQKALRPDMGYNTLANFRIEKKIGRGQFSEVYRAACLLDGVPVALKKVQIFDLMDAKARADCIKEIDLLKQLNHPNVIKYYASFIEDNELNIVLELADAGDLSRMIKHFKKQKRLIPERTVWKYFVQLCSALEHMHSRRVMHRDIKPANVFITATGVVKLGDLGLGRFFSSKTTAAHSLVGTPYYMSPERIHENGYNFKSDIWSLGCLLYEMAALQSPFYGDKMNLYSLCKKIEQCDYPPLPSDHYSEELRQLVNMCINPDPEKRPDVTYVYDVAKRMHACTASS

Regarding `Cc1cc([C@@H](C)Nc2ccccc2C(=O)O)c2nc(N3CCOCC3)cc(=O)n2c1` [AZD-6482], the % of control in assay [1] and in [2] was 100% each time.

Consider `Nc1cnc(N2CCc3cc(S(=O)(=O)Nc4c(F)cc(Cl)cc4F)cc(N4CCCC4=O)c32)nc1` [TP-020n], for which, in assay [3], the % of inhibition is 20.2%.

For `C=CC(=O)Nc1cc(-n2c(=O)ccc3cnc4ccc(-c5ccc(NS(C)(=O)=O)cc5)cc4c32)ccc1C`, the % of control in assay [4] (at 1 µM) amounted to 100%; in assay [4] (at 10 µM), 80%; in assay [5] (at 1 µM), 100%; in assay [5] (at 10 µM), 100%.

In the case of `O=C(NOC[C@H](O)CO)c1ccc(F)c(F)c1Nc1ccc(I)cc1F`, the % of control in assay [6] was found to be 72%.

For `Cn1cc(-n2cnc3c(NCc4nc5cc(Cl)c(Cl)cc5[nH]4)nc(N4CCOCC4)nc32)cn1`, the % of control in assay [7] was -10.9%.

With `CC[C@@H]1[C@H](F)C(=O)N[C@@H]1COc1nccc2cc(C(N)=O)c(OC)cc12` [ZIMLOVISERTIB], the % of inhibition was -4.8% in assay [8] (at 0.01 µM); 7.5% in [8] (at 0.04 µM); 11.8% in [8] (at 0.2 µM); 9.4% in assay [8] (at 1 µM); 7.6% in [8] (at 5 µM).

Take `COCC(=O)NC/C=C/c1ccc2ncnc(Nc3ccc(Oc4ccc(C)nc4)c(C)c3)c2c1` [CP-724714]: the % of control in assay [9] worked out at 100%.

Consider `N#Cc1cccc(-c2c[nH]c3ncnc(N4CCOCC4)c23)c1`, for which the % of control in assay [10] worked out at 75%.

In the case of `O[C@H]1CC[C@H](Nc2ncc3nc(Nc4c(F)cc(F)cc4F)n([C@H]4CCOC4)c3n2)CC1`, the % of control in [11] amounted to 100%.
